# Data as given in PubChem BioAssay AID1963425 (Molecular Pharmacology Branch, DTP, NCI, 2024).
# “And” between values parts separate entries of the source, which are not always exact repeats. Identical values can stand only once.
# Test system: 323965-272-R-J2-PDC complex spheroid growth, % test/control
# Test: Anticancer human tumor 323965-272-R-J2-PDC patient-derived pancreatic carcinoma cell line growth inhibition [Asc]
# Settings: for viability, T/C: stronger effect = lower value
# In short: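 Complex solid-tumor spheroids incorporating human endothelial and mesenchymal stem cells received single agents or combinations over half-log dilution ranges anchored to clinical Cmax.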
# 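Note: compound exposure lasted 7 days starting three days after spheroid seeding.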
# 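Throughout, for viability, T/C: 100% = DMSO vehicle control wells with viability set relative to vehicle.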
structure (smiles),measurement,setting,value
O=C(c1cc(Cc2n[nH]c(=O)c3ccccc23)ccc1F)N1CCN(C(=O)C2CC2)CC1 + CCN1C(C(=O)NC23CCC(C(=O)O)(CC2)CC3)C(c2cccc(Cl)c2F)C2(C(=O)Nc3cc(Cl)ccc32)C12CCCCC2,IC50,"curve of first compound, second compound 0.00949 µM",> 10 µM
same,IC50,"curve of first compound, second compound 0.03 µM",> 10 µM
same,IC50,"curve of first compound, second compound 0.0949 µM",> 10 µM
same,IC50,"curve of first compound, second compound 0.3 µM",> 10 µM
same,IC50,"curve of first compound, second compound 0.949 µM",> 10 µM
same,IC50,"curve of first compound, second compound 3 µM",> 10 µM
same,"viability, T/C","second compound 0.00949 µM, first compound 0.0316 µM",106%
same,"viability, T/C","second compound 0.00949 µM, first compound 0.1 µM",107%
same,"viability, T/C","second compound 0.00949 µM, first compound 0.316 µM",113%
same,"viability, T/C","second compound 0.00949 µM, first compound 1 µM",110%
same,"viability, T/C","second compound 0.00949 µM, first compound 3.16 µM",110%
same,"viability, T/C","second compound 0.00949 µM, first compound 10 µM",91.5%
same,"viability, T/C","second compound 0.03 µM, first compound 0.0316 µM",103%
same,"viability, T/C","second compound 0.03 µM, first compound 0.1 µM",111%
same,"viability, T/C","second compound 0.03 µM, first compound 0.316 µM",106%
same,"viability, T/C","second compound 0.03 µM, first compound 1 µM",106%
same,"viability, T/C","second compound 0.03 µM, first compound 3.16 µM",107%
same,"viability, T/C","second compound 0.03 µM, first compound 10 µM",95.8%
same,"viability, T/C","second compound 0.0949 µM, first compound 0.0316 µM",113%
same,"viability, T/C","second compound 0.0949 µM, first compound 0.1 µM",107%
same,"viability, T/C","second compound 0.0949 µM, first compound 0.316 µM",111%
same,"viability, T/C","second compound 0.0949 µM, first compound 1 µM",108%
same,"viability, T/C","second compound 0.0949 µM, first compound 3.16 µM",116%
same,"viability, T/C","second compound 0.0949 µM, first compound 10 µM",100%
same,"viability, T/C","second compound 0.3 µM, first compound 0.0316 µM",116%
same,"viability, T/C","second compound 0.3 µM, first compound 0.1 µM",107%
same,"viability, T/C","second compound 0.3 µM, first compound 0.316 µM",117%
same,"viability, T/C","second compound 0.3 µM, first compound 1 µM",117%
same,"viability, T/C","second compound 0.3 µM, first compound 3.16 µM",103%
same,"viability, T/C","second compound 0.3 µM, first compound 10 µM",97.5%
same,"viability, T/C","second compound 0.949 µM, first compound 0.0316 µM",112%
same,"viability, T/C","second compound 0.949 µM, first compound 0.1 µM",106%
same,"viability, T/C","second compound 0.949 µM, first compound 0.316 µM",122%
same,"viability, T/C","second compound 0.949 µM, first compound 1 µM",95.4%
same,"viability, T/C","second compound 0.949 µM, first compound 3.16 µM",109%
same,"viability, T/C","second compound 0.949 µM, first compound 10 µM",85.1%
same,"viability, T/C","second compound 3 µM, first compound 0.0316 µM",102%
same,"viability, T/C","second compound 3 µM, first compound 0.1 µM",105%
same,"viability, T/C","second compound 3 µM, first compound 0.316 µM",107%
same,"viability, T/C","second compound 3 µM, first compound 1 µM",105%
same,"viability, T/C","second compound 3 µM, first compound 3.16 µM",92.4%
same,"viability, T/C","second compound 3 µM, first compound 10 µM",93.3%
NC(=O)C(=Cn1cnc(-c2cc(C(F)(F)F)cc(C(F)(F)F)c2)n1)c1cncnc1,"viability, T/C",compound 0.000949 µM,105% and 108% and 73.8%
same,"viability, T/C",compound 0.003 µM,91.3% and 106% and 96.3%
same,"viability, T/C",compound 0.00949 µM,101% and 105% and 88.4%
same,"viability, T/C",compound 0.03 µM,93.7% and 89% and 82.1%
same,"viability, T/C",compound 0.0949 µM,86.4% and 80.2% and 77.3%
same,"viability, T/C",compound 0.3 µM,57.8% and 57% and 75.2%
same,IC50,curve of compound,> 0.3 µM
